According to ChEMBL document CHEMBL1201862, “PubChem BioAssay data set” (2004):
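Following 48 hours of exposure in 96-well plates, responses at five concentrations were used to interpolate endpoints linearly. Here, GI50 denotes the concentration required for 50% inhibition of growth.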 The source made the active and inactive calls. No stated cut-off is given here; in the data, active = GI50 up to about 1.1 µM and inactive = higher.

What was measured:
Assay in all cases: inhibition of tumour cell growth, NCI panel, 48 h
HOP-62 = test system: HOP-62
HT-29 = test system: HT-29
SF-539 = test system: SF-539
CCRF-CEM = test system: CCRF-CEM
U-251 = test system: U-251
COLO 205 = test system: COLO 205
A549 = test system: A549
NCI-H23 = test system: NCI-H23
K562 = test system: K562
KM-20L2 = test system: KM-20L2
HCC 2998 = test system: HCC 2998
SF-295 = test system: SF-295
SNB-78 = test system: SNB-78
XF498 = test system: XF498
UO-31 = test system: UO-31
HCT-116 = test system: HCT-116
LOX IMVI = test system: LOX IMVI
SK-MEL-2 = test system: SK-MEL-2
IGROV-1 = test system: IGROV-1
NCI-H460 = test system: NCI-H460
M19-MEL = test system: M19-MEL
TK-10 = test system: TK-10
Malme-3M = test system: Malme-3M
LXFL 529 = test system: LXFL 529
SK-MEL-5 = test system: SK-MEL-5
SNB-19 = test system: SNB-19
RPMI-8226 = test system: RPMI-8226
NCI-H226 = test system: NCI-H226
SK-OV-3 = test system: SK-OV-3
OVCAR-5 = test system: OVCAR-5
CAKI-1 = test system: CAKI-1
M14 = test system: M14
SW-620 = test system: SW-620
UACC-62 = test system: UACC-62
SR = test system: SR
UACC-257 = test system: UACC-257
HOP-92 = test system: HOP-92
NCI-H522 = test system: NCI-H522
HCT-15 = test system: HCT-15
A498 = test system: A498
RXF 393 = test system: RXF 393
DMS-114 = test system: DMS-114
KM12 = test system: KM12
SK-MEL-28 = test system: SK-MEL-28
SF-268 = test system: SF-268
EKVX = test system: EKVX
MOLT-4 = test system: MOLT-4
DLD-1 = test system: DLD-1
OVCAR-8 = test system: OVCAR-8
HOP-18 = test system: HOP-18
OVCAR-3 = test system: OVCAR-3
DMS-273 = test system: DMS-273
SNB-75 = test system: SNB-75
ACHN = test system: ACHN
SN12C = test system: SN12C
786-0 = test system: 786-0
HL-60 = test system: HL-60
OVCAR-4 = test system: OVCAR-4
RXF 631 = test system: RXF 631

Measured: GI50

COc1cc2c(oc(=O)c3cc4cc([Si](C)(C)C)oc4c(OC)c32)c2cccc(O)c12
inactive: HOP-62 > 100 µM | HT-29 > 100 µM | SF-539 > 100 µM | CCRF-CEM > 100 µM | U-251 > 100 µM | COLO 205 > 100 µM | A549 > 100 µM | NCI-H23 > 100 µM | K562 > 100 µM | KM-20L2 > 100 µM | HCC 2998 > 100 µM | SF-295 > 100 µM | SNB-78 > 100 µM | XF498 > 100 µM | UO-31 > 100 µM | HCT-116 > 100 µM | LOX IMVI > 100 µM | SK-MEL-2 > 100 µM | IGROV-1 > 100 µM | NCI-H460 > 100 µM | M19-MEL > 100 µM | TK-10 > 100 µM | Malme-3M > 100 µM | LXFL 529 > 100 µM | SK-MEL-5 > 100 µM | SNB-19 > 100 µM | RPMI-8226 > 100 µM | NCI-H226 > 100 µM | SK-OV-3 > 100 µM | OVCAR-5 > 100 µM | CAKI-1 > 100 µM | M14 > 100 µM | SW-620 > 100 µM | UACC-62 > 100 µM | SR > 100 µM | UACC-257 > 100 µM | HOP-92 > 100 µM | NCI-H522 > 100 µM | A498 78.9 µM | RXF 393 > 100 µM | DMS-114 > 100 µM | KM12 > 100 µM | SK-MEL-28 > 100 µM | SF-268 > 100 µM | EKVX > 100 µM | MOLT-4 > 100 µM | DLD-1 > 100 µM | OVCAR-8 > 100 µM | HOP-18 > 100 µM | OVCAR-3 > 100 µM | DMS-273 > 100 µM | SNB-75 > 100 µM | ACHN > 100 µM | SN12C > 100 µM | 786-0 > 100 µM | HL-60 > 100 µM | OVCAR-4 > 100 µM
> 100 µM: HCT-15

CCn1c(O)c(C(=O)Nc2cccs2)c(=O)n(CC)c1=S
14 µM: HCT-15
inactive: HOP-62 21.6 µM | HT-29 17.6 µM | SF-539 18.5 µM | CCRF-CEM 26.7 µM | U-251 11.4 µM | COLO 205 16.8 µM | A549 18.5 µM | NCI-H23 15.8 µM | K562 21.9 µM | KM-20L2 17.7 µM | SF-295 11.7 µM | SNB-78 17.8 µM | HCT-116 19.2 µM | LOX IMVI 17 µM | SK-MEL-2 17.3 µM | IGROV-1 20.5 µM | NCI-H460 15.5 µM | M19-MEL 19.1 µM | TK-10 29 µM | Malme-3M 19.9 µM | LXFL 529 14.9 µM | RXF 631 19 µM | SK-MEL-5 18 µM | SNB-19 19.5 µM | RPMI-8226 20.4 µM | NCI-H226 25.5 µM | SK-OV-3 26.7 µM | OVCAR-5 23.7 µM | CAKI-1 22.6 µM | M14 19.8 µM | SW-620 23.2 µM | UACC-62 16 µM | SR 29.5 µM | UACC-257 22.7 µM | HOP-92 21 µM | NCI-H522 18 µM | A498 19.5 µM | DMS-114 15.4 µM | KM12 16.8 µM | SK-MEL-28 17.3 µM | SF-268 19.3 µM | MOLT-4 20 µM | DLD-1 33.3 µM | OVCAR-8 14.2 µM | OVCAR-3 16.6 µM | SNB-75 17.5 µM | ACHN 21.5 µM | SN12C 20 µM | 786-0 19.6 µM | HL-60 19.8 µM | OVCAR-4 15.3 µM
